Calls of active or inactive are those of the source.
What was measured:
cells [1] = experiment: cells
[2] = target: T1, Oxysterols receptor LXR-beta (Homo sapiens, UniProt P55055); assay type: functional, cell-based;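 note: Cell-based luminescence dose-response assay of agonist activity at LXR, run as a confirmatory counterscreen to a daf-12 agonist screen; HEK293 cells with Gal4-LXR fusion and GAL4-driven luciferase reporter; agonist potency from rising luciferase signal of a Gal4-LXR reporter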
T1 sequence (P55055 whole entry): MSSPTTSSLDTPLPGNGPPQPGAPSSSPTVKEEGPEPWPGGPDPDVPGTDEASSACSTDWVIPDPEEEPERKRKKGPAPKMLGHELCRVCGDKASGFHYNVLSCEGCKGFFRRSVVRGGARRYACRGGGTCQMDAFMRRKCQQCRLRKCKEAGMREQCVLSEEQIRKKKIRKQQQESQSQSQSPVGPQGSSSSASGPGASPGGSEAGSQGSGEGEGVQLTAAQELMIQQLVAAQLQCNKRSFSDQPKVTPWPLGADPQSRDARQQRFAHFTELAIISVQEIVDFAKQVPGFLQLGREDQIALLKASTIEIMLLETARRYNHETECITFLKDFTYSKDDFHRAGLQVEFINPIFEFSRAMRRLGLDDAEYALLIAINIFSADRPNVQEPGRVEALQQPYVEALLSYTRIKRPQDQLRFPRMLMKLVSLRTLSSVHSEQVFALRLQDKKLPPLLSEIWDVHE

[3] = Luminescence Cell-Based Dose Response HTS to Identify Inhibitors of 5'UTR Stem-Loop Driven Prion Protein mRNA Translation in H4 Neuroglioblastoma Cells. [Related pubchem assays: 1827 (Project Summary), 1813 (Primary HTS)]; assay type: functional
[4] = blockers of bursicon-stimulated LGR2 cAMP reporter – cell-based, HEK293, CRE-luciferase reporter, cherry pick, set 2, dose response (AID 743343); assay type: functional;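 note: transfected cells were stimulated with diluted bursicon conditioned medium after compound addition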
[5] = toxicity toward HepG2 liver cells – cell-based, plate reader, cherry-pick, antagonist series, cytotoxicity control, dose response (AID 743416); assay type: functional
[6] = A549 cell cytotoxicity, dose response, cytotoxicity control, plate reader, cherry-pick, antagonist series (AID 743412); assay type: functional, cell-based
[7] = viability loss in HEK293 cells – cell-based, plate reader, cherry-picked samples, cytotoxicity control, dose response (AID 743446); assay type: functional
HEK293 = experiment: EBV LMP1 TES2 canonical NF-kB signalling blockers – cell-based, HEK293, luciferase, cherry-pick, dose response (AID 588343); assay type: functional; details: Homo sapiens
[8] = blockade of melanocortin 4 receptor signaling – cell-based, plate reader, cherry pick, counter-screen for LGR2 antagonist project, dose response (AID 743444); assay type: functional;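 note: transfected HEK 293 cells stimulated with alpha-MSH peptide; potency of inhibitors of the alpha-MSH evoked signal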
[9] = loss of viability in HepG2 cells – cell-based, CellTiter-Glo, cherry-picked, cytotoxicity control for Shn3 inhibitor project, dose response (AID 624134); assay type: functional
[10] = A2780 cell killing – plate reader, dry powder samples, cytotoxicity control, dose response (AID 743046); assay type: functional, cell-based
[11] = reduction of Shn3 3'UTR-driven luciferase in osteoblasts – cell-based, Clone20 osteoblasts, firefly luciferase, cherry-picked, dose response (AID 624132); assay type: functional;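 note: firefly luciferase luminescence from reporter carrying the Shn3 3'UTR in osteoblasts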
[12] = COV362 cell viability loss – plate reader, dry powder, SA12, cytotoxicity control for PAX8 inhibitor project, dose response (AID 743144); assay type: functional, cell-based
[13] = COV434 cell viability loss – plate reader, dry powder, SA7, cytotoxicity control for PAX8 inhibitor project, dose response (AID 743145); assay type: functional, cell-based
[14] = non-specific 3'UTR reporter inhibition in Clone20-Shn3RL – cell-based, Renilla luciferase, cherry-picked, counter-screen for Shn3 inhibitor project, dose response (AID 624133); assay type: functional
[15] = inhibitors acting on PAX2 in cells – cell-based, plate reader, dry powder samples, selectivity assay for PAX8 inhibitor project, dose response (AID 743048); assay type: functional;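 note: HEK293 cells carrying a WT1 promoter luciferase reporter driven by expressed Pax2; potency is for inhibition of Pax2 driven reporter signal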
cells [16] = assay type: functional, cell-based
cells [17] = assay type: functional, cell-based; remark: listed apart in the source
[18] = IGROV1 cell killing – plate reader, dry powder samples, PAX8 inhibitor project, dose response (AID 743043); assay type: functional, cell-based; details: IGROV-1
Paired box protein Pax-8 = Paired box protein Pax-8 (Homo sapiens, UniProt Q06710); experiment: PAX8 transcriptional activity inhibition in RMG-I – RMG-I cells, luciferase, cherry-pick, dose response (AID 687027); assay type: functional, cell-based;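 note: luciferase reporter driven by Pax8 target thyroperoxidase promoter measured by SteadyGlo luminescence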
Paired box protein Pax-8, sequence (Q06710 whole entry): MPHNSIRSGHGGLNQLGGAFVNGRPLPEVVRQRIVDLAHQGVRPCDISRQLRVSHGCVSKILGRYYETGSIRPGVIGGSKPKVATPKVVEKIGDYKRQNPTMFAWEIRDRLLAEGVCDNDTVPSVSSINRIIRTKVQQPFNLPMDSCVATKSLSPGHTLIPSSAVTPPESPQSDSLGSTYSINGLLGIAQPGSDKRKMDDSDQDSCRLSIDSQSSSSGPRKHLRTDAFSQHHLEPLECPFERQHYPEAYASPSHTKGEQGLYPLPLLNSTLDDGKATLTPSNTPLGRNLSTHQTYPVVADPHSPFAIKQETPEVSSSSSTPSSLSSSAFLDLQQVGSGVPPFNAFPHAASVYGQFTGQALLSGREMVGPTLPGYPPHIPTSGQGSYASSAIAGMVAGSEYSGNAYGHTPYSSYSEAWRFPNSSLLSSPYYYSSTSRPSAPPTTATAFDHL

[19] = OVCAR-3 cell viability loss – plate reader, dry powder samples, PAX8 inhibitor project, dose response (AID 743044); assay type: functional, cell-based
[20] = OV-90 cell viability loss – plate reader, dry powder, SA8, PAX8 inhibitor project, dose response (AID 743149); assay type: functional, cell-based
[21] = OVCAR4 cell viability loss – plate reader, dry powder, SA11, cytotoxicity control for PAX8 inhibitor project, dose response (AID 743150); assay type: functional, cell-based; details: OVCAR-4
[22] = PAX8-dependent cell viability loss – plate reader, dry powder, dose response (AID 743049); assay type: functional, cell-based
[23] = cytotoxicity in MITF-independent A375 cells – cell-based, CellTiter-Glo luminescence, dry powder, set 4, counter-screen for MITF inhibitor project, dose response (AID 624364); assay type: functional; details: A-375;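 note: A375 melanoma cells are MITF independent so this is a counter screen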
[24] = viability loss in MITF-independent A375 cells – cell-based, CellTiter-Glo luminescence, dry powder, set 2, counter-screen for MITF inhibitor project, dose response (AID 624489); assay type: functional; details: A-375;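 note: actives are compounds lowering A375 viability meaning general cytotoxicity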
[25] = target: Disintegrin and metalloproteinase domain-containing protein 17 (Homo sapiens, UniProt P78536); experiment: inhibition of ADAM17 substrate cleavage – biochemical, quenched FRET substrate, counter-screen for ADAM10 exosite inhibitor project, dose response (AID 743253)
Disintegrin and metalloproteinase domain-containing protein 17, sequence (P78536 whole entry, the tested form may be a part): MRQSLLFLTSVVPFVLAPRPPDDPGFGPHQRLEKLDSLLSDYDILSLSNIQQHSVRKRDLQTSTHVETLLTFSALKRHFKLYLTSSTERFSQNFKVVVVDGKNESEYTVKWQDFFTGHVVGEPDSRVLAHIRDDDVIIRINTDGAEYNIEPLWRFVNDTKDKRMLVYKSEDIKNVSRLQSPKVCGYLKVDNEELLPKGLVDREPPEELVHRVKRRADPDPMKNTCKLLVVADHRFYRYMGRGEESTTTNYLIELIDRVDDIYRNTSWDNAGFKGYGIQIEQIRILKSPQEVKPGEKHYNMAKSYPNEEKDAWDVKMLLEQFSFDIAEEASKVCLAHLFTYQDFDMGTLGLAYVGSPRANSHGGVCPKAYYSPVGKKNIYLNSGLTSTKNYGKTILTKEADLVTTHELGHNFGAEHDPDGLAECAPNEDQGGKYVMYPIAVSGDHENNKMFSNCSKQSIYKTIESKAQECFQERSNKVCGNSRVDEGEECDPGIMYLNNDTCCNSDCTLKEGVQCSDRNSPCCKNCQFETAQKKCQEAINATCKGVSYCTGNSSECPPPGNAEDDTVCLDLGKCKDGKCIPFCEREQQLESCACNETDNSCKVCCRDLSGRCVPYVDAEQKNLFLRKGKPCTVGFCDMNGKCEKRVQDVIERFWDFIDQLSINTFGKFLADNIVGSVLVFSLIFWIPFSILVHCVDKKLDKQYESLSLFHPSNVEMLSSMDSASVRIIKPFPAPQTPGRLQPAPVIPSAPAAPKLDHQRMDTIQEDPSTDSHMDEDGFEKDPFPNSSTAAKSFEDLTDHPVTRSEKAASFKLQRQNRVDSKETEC

[26] = potency of ADAM10 substrate cleavage blockers – biochemical, QFRET, dose response (AID 743254);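 note: ADAM10 enzyme with the DM2 quenched FRET peptide as substrate; EDANS fluorescence gain as the protease cuts the substrate; inhibitor potency against ADAM10 proteolytic activity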
[27] = alpha-synuclein stem-loop luciferase translation blockers – H4 neuroglioma cells, luminescence, confirmation (AID 1988); assay type: functional, cell-based
[28] = luciferase reporter signal suppression in cells – H4 neuroglioma cells, luminescence, dose response (AID 1990); assay type: functional, cell-based
[29] = target: T2, Heat shock factor protein 1 (Mus musculus, UniProt P38532); experiment: decrease of HSF1-responsive luciferase luminescence – cell-based, NIH3T3, dose retest, confirmation (AID 2382); assay type: functional;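 note: NIH3T3 fibroblasts with HSF1-driven luciferase reporter stressed by proteasome inhibitor MG132; luminescence from HSF1-driven luciferase expression after 8 hours of MG132 stress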
T2 sequence (P38532 whole entry): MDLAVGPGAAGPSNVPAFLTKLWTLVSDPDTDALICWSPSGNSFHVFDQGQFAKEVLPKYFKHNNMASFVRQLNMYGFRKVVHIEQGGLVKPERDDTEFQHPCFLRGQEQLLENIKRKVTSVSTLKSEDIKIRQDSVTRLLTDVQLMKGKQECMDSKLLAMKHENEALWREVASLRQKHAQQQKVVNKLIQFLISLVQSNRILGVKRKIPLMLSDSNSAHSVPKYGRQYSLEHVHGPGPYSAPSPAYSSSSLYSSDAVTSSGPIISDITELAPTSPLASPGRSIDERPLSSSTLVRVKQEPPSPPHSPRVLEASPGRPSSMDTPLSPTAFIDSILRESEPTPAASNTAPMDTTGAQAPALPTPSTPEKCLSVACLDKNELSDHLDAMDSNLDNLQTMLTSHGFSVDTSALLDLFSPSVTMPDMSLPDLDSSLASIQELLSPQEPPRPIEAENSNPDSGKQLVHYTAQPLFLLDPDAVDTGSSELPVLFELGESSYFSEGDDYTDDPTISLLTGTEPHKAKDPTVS

[30] = target: Metabotropic glutamate receptor 7 (Homo sapiens, UniProt Q14831); experiment: potentiation of glutamate EC20 at mGlu7 – cell-based, calcium mobilization, Galpha15, dose response (AID 743384); assay type: functional
Metabotropic glutamate receptor 7, sequence (Q14831 whole entry): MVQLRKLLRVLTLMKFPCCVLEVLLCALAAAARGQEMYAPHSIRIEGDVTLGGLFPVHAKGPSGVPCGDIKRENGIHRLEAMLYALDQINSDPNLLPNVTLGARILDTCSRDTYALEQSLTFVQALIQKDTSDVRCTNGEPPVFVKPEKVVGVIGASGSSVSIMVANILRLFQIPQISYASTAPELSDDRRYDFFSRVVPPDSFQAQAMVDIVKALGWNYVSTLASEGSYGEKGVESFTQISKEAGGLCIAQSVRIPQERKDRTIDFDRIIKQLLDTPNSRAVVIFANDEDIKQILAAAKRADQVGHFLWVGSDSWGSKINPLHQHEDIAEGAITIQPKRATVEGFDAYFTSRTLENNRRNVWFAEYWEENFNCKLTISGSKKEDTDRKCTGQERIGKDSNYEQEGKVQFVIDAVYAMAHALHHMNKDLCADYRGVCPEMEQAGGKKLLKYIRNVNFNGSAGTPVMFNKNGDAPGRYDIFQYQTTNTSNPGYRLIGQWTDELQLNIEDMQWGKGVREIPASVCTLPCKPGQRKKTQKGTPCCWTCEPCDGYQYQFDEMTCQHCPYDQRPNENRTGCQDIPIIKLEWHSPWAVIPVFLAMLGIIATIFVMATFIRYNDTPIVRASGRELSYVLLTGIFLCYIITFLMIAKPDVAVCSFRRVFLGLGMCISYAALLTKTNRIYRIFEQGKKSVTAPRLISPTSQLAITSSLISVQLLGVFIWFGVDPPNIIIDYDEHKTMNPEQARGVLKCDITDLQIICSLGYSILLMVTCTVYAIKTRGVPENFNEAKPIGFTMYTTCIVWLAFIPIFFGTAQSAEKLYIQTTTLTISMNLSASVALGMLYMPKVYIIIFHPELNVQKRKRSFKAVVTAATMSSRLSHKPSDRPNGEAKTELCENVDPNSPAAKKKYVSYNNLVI

[31] = PAX5 cellular inhibition readout – cell-based, plate reader, dry powder samples, selectivity assay for PAX8 inhibitor project, dose response (AID 743047); assay type: functional;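 note: HEK293 cells carrying a Pax5 driven CD19 promoter luciferase reporter; potency of inhibitors that lower reporter luminescence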
INS1 = experiment: INS-1E survival protection against cytokine death – cell-based, luminescence, retest, dose response (AID 449756); assay type: functional; details: Rattus norvegicus, INS1;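 note: cell death triggered by IL-1 beta plus TNF-alpha plus IFN-gamma mixture; protective hits raise ATP signal compared with cytokine alone wells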
[32] = target: T2, Heat shock factor protein 1; experiment: enhancement of HSF1-driven luciferase signal – cell-based, NIH3T3, luminescence, dose retest, confirmation (AID 435004); assay type: functional;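 note: stress induced by proteasome inhibitor MG132 added 30 min after compound; luciferase reporter driven by HSF1 response element in NIH3T3 cells; actives raise luminescence as potentiators of the MG132 stress response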

For `Cn1c(=N)n(CC(=O)c2ccccc2)c2ccccc21`, the EC50 (cells [1]) was > 67.5 µM (inactive), the EC50 [2] was > 67.5 µM (inactive) and the EC50 [3] was 8.25 µM (inconclusive).

With `Cc1ccnc(NC(=O)c2ccc(C(=O)c3ccccc3)cc2)c1` the AC50 [4] was 7.49 µM (active), the AC50 [5] was > 52 µM (inactive) and the AC50 [6] was > 52 µM (inactive). The AC50 [7] was 31.2 µM (active), the AC50 (HEK293) was 3.28 µM (active) and the AC50 [8] was 5.18 µM (active).

For `Cc1cc(NC(=O)CCCS(=O)(=O)c2nc(-c3cccs3)cc(C(F)(F)F)n2)no1`, the AC50 [9] was 16.3 µM (active), the AC50 [10] was 10.3 µM (active) and the AC50 [11] was 1.73 µM (active). For the same compound, the AC50 [12] was 14.3 µM (active), the AC50 [13] was 12.1 µM (active) and the AC50 [14] was 6.46 µM (active). For the same compound, the AC50 [15] was 17.3 µM (active), the EC50 (cells [16]) was > 350 µM (not active) and the EC50 (cells [17]) was > 350 µM (not active). For the same compound, the AC50 [18] was 16.4 µM (active), the AC50 (Paired box protein Pax-8) was 6.85 µM (active) and the AC50 [19] was 15.5 µM (active). For the same compound, the AC50 [20] was 26.3 µM (active), the AC50 [21] was 20.8 µM (active) and the AC50 [22] was 18.6 µM (active).

For `O=C(NC1=C(c2ccc(OC(F)(F)F)cc2)C(=O)c2ccccc2C1=O)c1ccco1`, the AC50 [23] was 32.2 µM (active) and the AC50 [24] was 21.1 µM (active).

With `COc1cc(/C=N/OCC(=O)Nc2ccc(OC(F)F)cc2)ccc1OCc1ccccc1` the IC50 [25] was > 69.5 µM (inactive) and the IC50 [26] was > 69.5 µM (inactive).

With `O=C(c1ccc(-c2nc3ccccc3s2)s1)N1CCOCC1` the AC50 [4] was 1.49 µM (active), the AC50 [5] was > 52 µM (inactive) and the AC50 [6] was > 52 µM (inactive). For the same compound, the EC50 [27] was 0.887 µM (active), the EC50 [28] was 1.42 µM (active) and the AC50 [7] was 51.4 µM (active). The EC50 [29] was 1.07 µM (active), the AC50 [8] was 2.04 µM (active) and the EC50 [3] was 54 µM (active).

In the case of `CCOc1ccc(-n2c(C)cc(C(=O)CSCc3ccc(OC)cc3)c2C)cc1`, the EC50 [30] was 10 µM (active).

In the case of `O=C(Nc1ccc(OCC(F)(F)C(F)F)c(C(F)(F)F)c1)c1ccccc1O`, the AC50 [13] was 56.2 µM (active), the AC50 [31] was 6.09 µM (active) and the AC50 [15] was 3.62 µM (active). The AC50 [18] was 48.2 µM (active), the AC50 (INS1) was 4.78 µM (active) and the EC50 [32] was 67.4 µM (active). The AC50 (Paired box protein Pax-8) was 7.06 µM (active), the AC50 [19] was 14.8 µM (active) and the AC50 [22] was 17.8 µM (active).
